The results in this text go back to US9480754B2, “Phospholipid ether analogs as cancer-targeting drug vehicles” (Cellectar Biosciences, Inc., priority 2014, dated 2016).

In data set [1] the test system is Lung NCI H-69 (Oat Cell). The data set can be described thus: 124I-CLR1404 tumor uptake, model 3. The following applies: SCID mouse, Small cell carcinoma. Type of data set: in vivo. The method, then:
(§1) All described animal studies were performed according to animal protocols approved by the Institutional Animal Care and Use Committee. Female athymic nude mice (Hsd:Athymic Nude-Foxnlnu or Crl:NU-Foxnlnu, Charles River Laboratories) about 4 to 5 weeks of age, 16 to 18 g (n=6), were used for human tumor xenograft studies. Mice were anesthetized with isoflurane and injected subcutaneously with viable tumor cells in 100 μl of Dulbecco's PBS (or, for glioma cells, […] of PBS) into the right flank. Inoculum sizes were 1×10^6 (for renal, ovarian, glioma, pancreatic, prostate, and NSCLC models), […] (for colorectal and uterine models), or 3×10^6 (breast).
(§2) Radioiodinated ^124I-CLR1404 was tested in subcutaneous and orthotopic xenografts of 60 different spontaneous, transgenic, human, and rodent malignant cell lines and tumor types. […] Representative examples are of both human (FIG. 5A-5I) and rodent (FIG. 5J-M) tumors.

Data set [2] deals with Glioma C6. The data set can be described thus: 124I-CLR1404 tumor uptake, model 48. It is filed as in vivo. The following applies: Rat xenograft. As to the method:
as §1, §2

Data set [3] has as its system Retinoblastoma. Nature of the data set: 124I-CLR1404 tumor uptake, model 51. The note with it: Endogenous mouse, Blastoma. It is filed as in vivo. The method, then:
as §1, §2

Data set [4] has as its system Mammary alveolar hyperplasia. Nature of the data set: 124I-CLR1404 tumor uptake, model 57. The following applies: Endogenous mouse, Hyperplasia (benign). Type of data set: in vivo. The method, then: as §1, §2
Data set [5] deals with Pancreatic c-myc. Nature of the data set: 124I-CLR1404 tumor uptake, model 52. It is filed as in vivo. The note with it: Endogenous mouse, Adenocarcinoma. The method, then:
as §1, §2

Data set [6] relates to Prostate PC-3. Nature of the data set: 124I-CLR1404 tumor uptake, model 1. Type of data set: in vivo. The note with it: SCID mouse, Adenocarcinoma. The method, then:
as §1, §2

In data set [7] the test system is Colon LS180. Nature of the data set: 124I-CLR1404 tumor uptake, model 7. The following applies: SCID mouse, Adenocarcinoma. Type of data set: in vivo. The method, then:
as §1, §2

Data set [8] relates to Adrenal H-295. The data set can be described thus: 124I-CLR1404 tumor uptake, model 4. Type of data set: in vivo. The note with it: SCID mouse, Adenocarcinoma. As to the method:
as §1, §2

The subject of data set [9] is Colon-51. The data set can be described thus: 124I-CLR1404 tumor uptake, model 6. The note with it: SCID mouse, Adenocarcinoma. Type of data set: in vivo. As to the method: as §1, §2
Data set [10] concerns Esophageal. The data set can be described thus: 124I-CLR1404 tumor uptake, model 55. The note with it: Endogenous Mouse, Adenocarcinoma. Type of data set: in vivo. The method, then:
as §1, §2

Data set [11] relates to Breast 4T1. Nature of the data set: 124I-CLR1404 tumor uptake, model 35. It is filed as in vivo. The note with it: Endogenous mouse (orthotopic), Adenocarcinoma. As to the method: as §1, §2
Data set [12] has as its system Glioblastoma 105 GSC. Nature of the data set: 124I-CLR1404 tumor uptake, model 34. It is filed as in vivo. The following applies: NOD-SCID mouse (orthotopic), Glioma. As to the method: as §1, §2
Data set [13] concerns Cervical-HPV. Nature of the data set: 124I-CLR1404 tumor uptake, model 54. Type of data set: in vivo. The note with it: Endogenous mouse, Adenocarcinoma. The method, then: as §1, §2
For data set [14], the system named is xenograft, orthotopic and transgenic cancer and cancer stem cell derived animal models. Nature of the data set: CLR1404 tumor selectivity across 60 tumor models. Type of data set: in vivo, rodent. The following applies: 60 different malignant cell lines and tumor types. The method, then: as §1, §2
Data set [15] has as its system Pancreatic Capan-1. The data set can be described thus: 124I-CLR1404 tumor uptake, model 22. It is filed as in vivo. The note with it: Nude mouse, Adenocarcinoma. The method, then: as §1, §2
The subject of data set [16] is Prostate MatLyLu. The data set can be described thus: 124I-CLR1404 tumor uptake, model 37. The following applies: Rat, Adenocarcinoma. It is filed as in vivo. As to the method: as §1, §2

In the case of `C[N+](C)(C)CCOP(=O)([O-])OCCCCCCCCCCCCCCCCCCc1ccc(I)cc1` [^124I-CLR1404], the Uptake result in [1] is on record as “Yes (Tumor uptake was considered positive if tumor to muscle ratio was greater than 3.)”; in data set [2], “Yes (Tumor uptake was considered positive if tumor to muscle ratio was greater than 3.)”; in [3], “Yes (Tumor uptake was considered positive if tumor to muscle ratio was greater than 3.)”; in [4], “No (Tumor:muscle ratio less than or equal to 2 was considered negative.)”; in [5] it was “Yes (Tumor uptake was considered positive if tumor to muscle ratio was greater than 3.)”; in data set [6] it was “Yes (Tumor uptake was considered positive if tumor to muscle ratio was greater than 3.)”. Moreover, the Uptake result in data set [7], in data set [8], in data set [9], in data set [10], in data set [11] and in data set [12] was “Yes (Tumor uptake was considered positive if tumor to muscle ratio was greater than 3.)” each time. For the same molecule, the Uptake entry in data set [13], in data set [15] and in [16] was “Yes (Tumor uptake was considered positive if tumor to muscle ratio was greater than 3.)” in each case. The “tumor localization after intravenous administration” value in data set [14] was “localized in almost all primary and metastatic malignant tumors”.
